In patent EP4635958A1, “PYRIMIDINE-CONTAINING POLYCYCLIC DERIVATIVE INHIBITOR, AND PREPARATION METHOD THEREFOR AND USE THEREOF” (Shanghai Hansoh Biomedical Co., Ltd., priority 2022, dated 2024):
Counter-ions that a name gives are not always drawn.

How the values were obtained:
AsPC-1 = experiment: Inhibition of proliferation of KRAS G12D mutant tumor cell line AsPC-1 (CellTiter-Glo); format: cell-based
Method in brief: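 KRAS G12D-mutant AsPC-1 cells plated overnight at 37 °C/5% CO2, then exposed to serial compound dilutions (DMSO/medium, vehicle control) for about 72 h. Viability read by CellTiter-Glo luminescence; inhibition rate vs concentration fitted by nonlinear regression for IC50.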

[1] = system: human pancreatic cancer cell line (HPAC); experiment: Antitumor efficacy in mouse transplanted tumor model of human pancreatic cancer cell line (HPAC); format: in vivo, mice (BALB/c nude); conditions: HPAC xenograft, 100mpk, PO*BID; for Tumor volume (mm^3, Mean ± SD) Day 0: Day 0 (baseline)
Description: 8-10 week old female conventional immunodeficient mice (BALB/c nude) with a body weight of 18 g-22 g were used as experimental animals, and a transplanted tumor model of human pancreatic cancer cell line (HPAC) was used to conduct in vivo efficacy experiments to test the anti-tumor results of the example compounds after gavage administration.
The example compounds of the present invention, made in house.
A certain amount of the example compound was weighed, and an appropriate amount of 10% vehicle (Solutol HS15) was added. The mixture was stirred on a magnetic stirrer for 0.5 h to formulate a homogeneous suspension at the desired concentration.
Human pancreatic cancer cell line (HPAC) was derived from COBIOER BIOSCIENCES CO., LTD, cultured on DMEM/F12 medium (Gibco, 11330-032) supplemented with 10% fetal calf serum (Gibco, 10091-148), 1×Insulin (51500-056, Gibco) and 10 ng/ml of EGF (PHG0311, Gibco) and observed under a microscope (Thermo Fisher, 311). The cells were routinely passaged when the cells reached 80%-90% confluence in the culture flask. The passaged cells were cultured in a 37°C, 5% CO2 incubator (Thermo Fisher, 311).
Under aseptic conditions, human pancreatic cancer cells (HPAC) in the logarithmic growth phase were harvested using 0.25% trypsin-EDTA (Gibco, 25200-056), washed and resuspended with phosphate buffer. The cell suspension was mixed with Matrigel (Corning, 356234) at a 1 : 1 ratio (v/v) and implanted subcutaneously into the right anterior dorsal region of immunodeficient mice (BALB/c nude). Each mouse was inoculated with 3*10^6 cells in a volume of 100 microliters (µL). After inoculation, when the tumor volume reached 100-200 mm^3, the mice would be evenly randomized into 5 groups based on the tumor size, with 5 mice per group, for in vivo efficacy experiments. The negative control group was the vehicle group.
Mode of administration: The example compounds were administered orally.
Twice a week, the long and short diameters of the tumor were measured using a vernier caliper, and the tumor volume (mm^3) was calculated using the formula: V = 0.5*D*d*d, where D and d are the long and short diameters of the tumor, respectively. The anti-tumor efficacy was determined by dividing the average increase in tumor volume of compound-treated animals by the average increase in tumor volume of untreated animals. The calculation formula for tumor inhibition rate was: When there is no tumor regression, TGI(%) = 100-[(Vt-V0) administration group/(Vt-V0) vehicle control group]*100%. When tumor regression occurs, TGI(%) = [1-(Vt-V0) administration group/V0 vehicle control group]*100%. All animals were euthanized after the experiment.

[2] = Homo sapiens, ASPC1, about 72 h

Compound	IC50 (AsPC-1; [2]) [nM]	Tumor volume (mm^3, Mean ± SD) Day 0 ([1]; Table 11) [mm^3]	TGI(%) Day 21 ([1]; Table 11) [%]	Tumor volume (mm^3, Mean ± SD) Day 21 ([1]; Table 11) [mm^3]	ΔT/ΔC(%) Day 21 ([1]; Table 11) [%]	Tumor volume (mm^3, Mean ± SD) Day 0 ([1]; Table 12) [mm^3]	TGI(%) Day 14 ([1]; Table 12) [%]	ΔT/ΔC(%) Day 14 ([1]; Table 12) [%]	Tumor volume (mm^3, Mean ± SD) Day 21 ([1]; Table 12) [mm^3]	IC50 (AsPC-1; about 72 h) [nM]
C#Cc1c(F)ccc2cc(O)cc(-c3nc4c5c(nc(OCC6(CN7CCC(=C(F)F)CC7)CC6)nc5c3F)N3C[C@H]5CC[C@H](N5)[C@H]3[C@H](C)O4)c12 [Example 19-1, 4-((5S,5aS,6S,9R)-12-((1-((4-(difluoromethylene)piperidin-1-yl)methyl)cyclopropyl)methoxy)-1-fluoro-5-methyl-5a,6,7,8,9,10-hexahydro-5H-4-oxa-3,10a,11,13,14-pentaaza-6,9-methylnaphtho[1,8-ab]hept-2-yl)-5-ethynyl-6-fluoronaphthalene-2-ol]	3.1									
C#Cc1c(F)ccc2cc(O)cc(-c3nc4c5c(nc(OCC6(CN7CCC(=CF)CC7)CC6)nc5c3F)N3C[C@H]5CC[C@H](N5)[C@H]3[C@H](C)O4)c12 [Example 129, 5-ethynyl-6-fluoro-4-((5S,5aS,6S,9R)-1-fluoro-12-((1-((4-(fluoromethylene)piperidin-1-yl)methyl)cyclopropyl)methoxy)-5-methyl-5a,6,7,8,9,10-hexahydro-5H-4-oxa-3,10a,11,13,14-pentaaza-6,9-methylnaphtho[1,8-ab]hept-2-yl)naphthalen-2-ol]	3.6	209	97.63	231	20.27					
CON=C1CCN(CC2(COc3nc4c5c(nc(-c6cc(N)cc(Cl)c6C(F)(F)F)c(F)c5n3)O[C@@H](C)[C@@H]3[C@@H]5CC[C@H](CN43)N5)CC2)CC1 [Example 337, 1-((1-((((5S,5aS,6S,9R)-2-(5-amino-3-chloro-2-(trifluoromethyl)phenyl)-1-fluoro-5-methyl-5a,6,7,8,9,10-hexahydro-5H-4-oxa-3,10a,11,13,14-pentaaza-6,9-methylnaphtho[1,8-ab]heptene-12-yl)oxy)methyl)cyclopropyl)methyl)piperidin-4-one O-methyloxime]	1.2									
[2H]C([2H])([2H])[C@@H]1Oc2nc(-c3cc(O)cc4ccc(F)c(C#C)c34)c(F)c3nc(OCC4(CN5CCC(=C(F)F)CC5)CC4)nc(c23)N2C[C@H]3CC[C@H](N3)[C@@H]12 [Example 161, 4-((5S,5aS,6S,9R)-12-((1-((4-(difluoromethylene)piperidin-1-yl)methyl)cyclopropyl)methoxy)-1-fluoro-5-(methyl-d3)-5a,6,7,8,9,10-hexahydro-5H-4-oxa-3,10a,11,13,14-pentaaza-6,9-methylnaphtho[1,8-ab]hept-2-yl)-5-ethynyl-6-fluoronaphthalen-2-ol]	4.4	209	137.45	131	11.47					
C#Cc1c(F)ccc2cc(O)cc(-c3nc4c5c(nc(OCC6(CN7CCC(=NOC)CC7)CC6)nc5c3F)N3C[C@H]5CC[C@H](N5)[C@H]3[C@H](C)O4)c12 [Example 35-1, 1-((1-((((5S,5aS,6S,9R)-2-(8-ethynyl-7-fluoro-3-hydroxynaphthalen-1-yl)-1-fluoro-5-methyl-5a,6,7,8,9,10-hexahydro-5H-4-oxa-3,10a,11,13,14-pentaaza-6,9-methylenenaphtho[1,8-ab]heptalen-12-yl)oxo)methyl)cyclopropyl)methyl)piperidin-4-one O-methyloxime formate]	3.8					469	76.39	61.00	585	
[2H]C([2H])([2H])[C@@H]1Oc2nc(-c3cc(O)cc4ccc(F)c(C#C)c34)c(F)c3nc(OCC4(CN5CCC(=CF)CC5)CC4)nc(c23)N2C[C@H]3CC[C@H](N3)[C@@H]12 [Example 164]	6.6									
[2H]C([2H])([2H])[C@@H]1Oc2nc(-c3cc(N)cc(Cl)c3C(F)(F)F)c(F)c3nc(OCC4(CN5CCC(=NOC)CC5)CC4)nc(c23)N2C[C@H]3CC[C@H](N3)[C@@H]12 [Example 339]	3.5					469	160.47	19.36	185	
[2H]C([2H])(Oc1nc2c3c(nc(-c4cc(O)cc5ccc(F)c(C#C)c45)c(F)c3n1)O[C@@H](C)[C@@H]1[C@@H]3CC[C@H](CN21)N3)C1(C([2H])([2H])N2CCC(=CF)CC2)CC1 [Example 291, 5-ethynyl-6-fluoro-4-((5S,5aS,6S,9R)-1-fluoro-12-((1-((4-(fluoromethylene)piperidin-1-yl)methyl-d2)cyclopropyl)methoxy-d2)-5-methyl-5a,6,7,8,9,10-hexahydro-5H-4-oxa-3,10a,11,13,14-pentaaza-6,9-methylnaphtho[1,8-ab]hept-2-yl)naphthalen-2-ol]	4.6	210	127.51	153	13.29					
4-((5S,5aS,6R,9S)-12-((1-((((R)-4-(difluoromethylene)-2-methylpiperidin-1-yl)methyl)cyclopropyl)methoxy)-1-fluoro-5-(methyl-d3)-5a,6,7,8,9,10-hexahydro-5H-4-oxa-3,10a,11,13,14-pentaaza-6,9-methylnaphtho[1,8-ab]hept-2-yl)-5-ethynyl-6-fluoronaphthalen-2-ol [Example 162]		210	126.15	155	13.54					4
